From patent US12129235B2, “TSPO binders” (The University Court of the University of Glasgow, priority 2018, dated 2024)

What was measured:
[1] = Dosimetry from whole-body mouse PET, OLINDA/EXM adult human phantom; format: in vivo, mice; conditions: for Effective Dose / Estimated Absorbed Dose, Adrenals / Estimated Absorbed Dose, Brain / Estimated Absorbed Dose, Breasts / Estimated Absorbed Dose, Gallbladder Wall / Estimated Absorbed Dose, Heart Wall / Estimated Absorbed Dose, Kidneys / Estimated Absorbed Dose, LLI Wall / Estimated Absorbed Dose, Liver / Estimated Absorbed Dose, Lungs / Estimated Absorbed Dose, Muscle / Estimated Absorbed Dose, Osteogenic Cells / Estimated Absorbed Dose, Ovaries / Estimated Absorbed Dose, Pancreas / Estimated Absorbed Dose, Red Marrow / Estimated Absorbed Dose, Skin / Estimated Absorbed Dose, Small Intestine / Estimated Absorbed Dose, Spleen / Estimated Absorbed Dose, Stomach Wall / Estimated Absorbed Dose, Thymus / Estimated Absorbed Dose, Thyroid / Estimated Absorbed Dose, Total Body / Estimated Absorbed Dose, ULI Wall / Estimated Absorbed Dose, Urinary Bladder Wall / Estimated Absorbed Dose, Uterus / Estimated Absorbed Dose, Testes: adult human phantom
Protocol: 13 PET scans were performed with ^18F-LW223 (mean injected radioactivity of 19.55±2.1 MBq). Scans were acquired following i.v. bolus injection of ^18F-LW223 via tail vein or femoral vein shunt (invasive kinetic modelling experiments with β-probe automatic blood sampler) in rats. Test-retest scans were obtained in three rats following i.v. bolus of the radiotracer, with two weeks interval between test and retest imaging sessions. […] These scans were compared to baseline scans where no PK11195 was used. For displacement studies, rats received i.v. administration of ^18F-LW223 and scanned continuously for 120 min. […] A male and female mouse were initially used to derive the dosimetry estimates for ^18F-LW223 over a 4 h dynamic scan, followed by additional mice in a further study (in a study with a mean injected radioactivity of 10.83±5.6 MBq).
The following organs were identified as source organs: brain, heart, lungs, gallbladder, liver, gut, adrenals, kidneys and bladder. A whole-body VOI was drawn around the animal body and was used for quantification of whole-body remainder activity as whole-body activity minus source organs activity. At each time point, the measured activity of the source organs was expressed as the percent injected dose (% ID).
The residence time T, defined as the ratio of accumulated activity in the target organ (A) and injected activity (A0); τ=Ā/A0, was calculated as the area under the curve of the tissue time-activity curve normalized to % ID from time zero to infinity. The trapezoidal method was used for estimating T and after the last measured time point, it was assumed that the radiotracer underwent only physical decay with no biological elimination from the source organ. Calculated T were normalized for differences in mouse and human organ weights as a percentage of total body weight (based on data known from Khanuja et al.; Bielohuby et al.; Stabin et al.; Hindorf et al.; and Hui et al.), and entered into OLINDA/EXM 1.0 software, which was used to estimate organ doses and effective doses according to the male or female model implemented in OLINDA/EXM 1.0.

TSPO = TSPO (Homo sapiens, UniProt P30536); assay: ^18F-LW223 human autoradiography (stroke and diseased coronary tissue); format: binding; set-up: Paraffin embedded human deep brain stoke tissue and diseased coronary tissue sections; from tissue; host or cells: human deep brain stroke tissue and diseased coronary tissue sections
TSPO, sequence (P30536 whole entry): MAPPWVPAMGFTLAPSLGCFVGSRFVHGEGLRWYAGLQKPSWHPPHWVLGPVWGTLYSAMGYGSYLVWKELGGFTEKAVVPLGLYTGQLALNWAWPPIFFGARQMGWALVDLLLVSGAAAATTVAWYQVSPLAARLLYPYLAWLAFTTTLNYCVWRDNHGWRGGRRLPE
From the text: Slides were washed twice with buffer before being air dried and exposed to a Fujifilm BAS-IP MS 2040 phosphor screen (Fujifilm, Japan). Phosphor screens were imaged on a Fujifilm FLA5100 imaging plate reader (Fujifilm, Japan). Global regions of interest were drawn around whole tissue sections to calculate % SB. To calculate target:non-target ratios, regional sampling analysis was used within the same tissue in the highest and lowest uptake areas.

[2] = Female, additional work with further mice
[3] = Male, additional work with further mice

Structure (SMILES): CC[C@@H](C)N(C)C(=O)c1nc2ccccc2c(-c2ccccc2)c1C[18F] [^18F-LW223, (R)-(N-sec-Butyl)-3-[19-fluoro]-methyl-N-methyl-4-phenylquinoline-2-carboxamide]
- Effective Dose [1, 2]: 2.37E−02 mSv/MBq
- Estimated Absorbed Dose, Adrenals [1, 2]: 3.54E−02 mGy/MBq
- Estimated Absorbed Dose, Brain [1, 2]: 5.49E−03 mGy/MBq
- Estimated Absorbed Dose, Breasts [1, 2]: 8.51E−03 mGy/MBq
- Estimated Absorbed Dose, Gallbladder Wall [1, 2]: 2.40E−02 mGy/MBq
- Estimated Absorbed Dose, Heart Wall [1, 2]: 1.80E−02 mGy/MBq
- Estimated Absorbed Dose, Kidneys [1, 2]: 1.48E−02 mGy/MBq
- Estimated Absorbed Dose, LLI Wall [1, 2]: 8.94E−02 mGy/MBq
- Estimated Absorbed Dose, Liver [1, 2]: 1.88E−02 mGy/MBq
- Estimated Absorbed Dose, Lungs [1, 2]: 3.10E−02 mGy/MBq
- Estimated Absorbed Dose, Muscle [1, 2]: 9.70E−03 mGy/MBq
- Estimated Absorbed Dose, Osteogenic Cells [1, 2]: 1.52E−02 mGy/MBq
- Estimated Absorbed Dose, Ovaries [1, 2]: 1.63E−02 mGy/MBq
- Estimated Absorbed Dose, Pancreas [1, 2]: 1.25E−02 mGy/MBq
- Estimated Absorbed Dose, Red Marrow [1, 2]: 9.72E−03 mGy/MBq
- Estimated Absorbed Dose, Skin [1, 2]: 7.33E−03 mGy/MBq
- Estimated Absorbed Dose, Small Intestine [1, 2]: 1.29E−02 mGy/MBq
- Estimated Absorbed Dose, Spleen [1, 2]: 1.10E−02 mGy/MBq
- Estimated Absorbed Dose, Stomach Wall [1, 2]: 1.14E−02 mGy/MBq
- Estimated Absorbed Dose, Thymus [1, 2]: 1.06E−02 mGy/MBq
- Estimated Absorbed Dose, Thyroid [1, 2]: 8.89E−03 mGy/MBq
- Estimated Absorbed Dose, Total Body [1, 2]: 1.06E−02 mGy/MBq
- Estimated Absorbed Dose, ULI Wall [1, 2]: 1.24E−02 mGy/MBq
- Estimated Absorbed Dose, Urinary Bladder Wall [1, 2]: 1.49E−02 mGy/MBq
- Estimated Absorbed Dose, Uterus [1, 2]: 1.28E−02 mGy/MBq
- Effective Dose ([1]; Female, initial mouse study): 1.84E−02 mSv/MBq
- Estimated Absorbed Dose, Adrenals ([1]; Female, initial mouse study): 4.38E−02 mGy/MBq
- Estimated Absorbed Dose, Brain ([1]; Female, initial mouse study): 8.38E−03 mGy/MBq
- Estimated Absorbed Dose, Breasts ([1]; Female, initial mouse study): 1.16E−02 mGy/MBq
- Estimated Absorbed Dose, Gallbladder Wall ([1]; Female, initial mouse study): 2.80E−02 mGy/MBq
- Estimated Absorbed Dose, Heart Wall ([1]; Female, initial mouse study): 3.96E−02 mGy/MBq
- Estimated Absorbed Dose, Kidneys ([1]; Female, initial mouse study): 2.67E−02 mGy/MBq
- Estimated Absorbed Dose, LLI Wall ([1]; Female, initial mouse study): 1.61E−02 mGy/MBq
- Estimated Absorbed Dose, Liver ([1]; Female, initial mouse study): 2.04E−02 mGy/MBq
- Estimated Absorbed Dose, Lungs ([1]; Female, initial mouse study): 4.52E−02 mGy/MBq
- Estimated Absorbed Dose, Muscle ([1]; Female, initial mouse study): 1.27E−02 mGy/MBq
- Estimated Absorbed Dose, Osteogenic Cells ([1]; Female, initial mouse study): 2.01E−02 mGy/MBq
- Estimated Absorbed Dose, Ovaries ([1]; Female, initial mouse study): 1.71E−02 mGy/MBq
- Estimated Absorbed Dose, Pancreas ([1]; Female, initial mouse study): 1.68E−02 mGy/MBq
- Estimated Absorbed Dose, Red Marrow ([1]; Female, initial mouse study): 1.25E−02 mGy/MBq
- Estimated Absorbed Dose, Skin ([1]; Female, initial mouse study): 9.71E−03 mGy/MBq
- Estimated Absorbed Dose, Small Intestine ([1]; Female, initial mouse study): 3.97E−02 mGy/MBq
- Estimated Absorbed Dose, Spleen ([1]; Female, initial mouse study): 1.51E−02 mGy/MBq
- Estimated Absorbed Dose, Stomach Wall ([1]; Female, initial mouse study): 1.54E−02 mGy/MBq
- Estimated Absorbed Dose, Thymus ([1]; Female, initial mouse study): 1.47E−02 mGy/MBq
- Estimated Absorbed Dose, Thyroid ([1]; Female, initial mouse study): 1.19E−02 mGy/MBq
- Estimated Absorbed Dose, Total Body ([1]; Female, initial mouse study): 1.40E−02 mGy/MBq
- Estimated Absorbed Dose, ULI Wall ([1]; Female, initial mouse study): 1.89E−02 mGy/MBq
- Estimated Absorbed Dose, Urinary Bladder Wall ([1]; Female, initial mouse study): 1.51E−02 mGy/MBq
- Estimated Absorbed Dose, Uterus ([1]; Female, initial mouse study): 1.67E−02 mGy/MBq
- Effective Dose [1, 3]: 2.05E−02 mSv/MBq
- Estimated Absorbed Dose, Adrenals [1, 3]: 2.22E−02 mGy/MBq
- Estimated Absorbed Dose, Brain [1, 3]: 5.89E−03 mGy/MBq
- Estimated Absorbed Dose, Breasts [1, 3]: 7.18E−03 mGy/MBq
- Estimated Absorbed Dose, Gallbladder Wall [1, 3]: 2.01E−02 mGy/MBq
- Estimated Absorbed Dose, Heart Wall [1, 3]: 2.03E−02 mGy/MBq
- Estimated Absorbed Dose, Kidneys [1, 3]: 1.57E−02 mGy/MBq
- Estimated Absorbed Dose, LLI Wall [1, 3]: 7.82E−02 mGy/MBq
- Estimated Absorbed Dose, Liver [1, 3]: 1.30E−02 mGy/MBq
- Estimated Absorbed Dose, Lungs [1, 3]: 3.10E−02 mGy/MBq
- Estimated Absorbed Dose, Muscle [1, 3]: 8.04E−03 mGy/MBq
- Estimated Absorbed Dose, Osteogenic Cells [1, 3]: 1.20E−02 mGy/MBq
- Estimated Absorbed Dose, Pancreas [1, 3]: 1.03E−02 mGy/MBq
- Estimated Absorbed Dose, Red Marrow [1, 3]: 8.22E−03 mGy/MBq
- Estimated Absorbed Dose, Skin [1, 3]: 6.09E−03 mGy/MBq
- Estimated Absorbed Dose, Small Intestine [1, 3]: 1.11E−02 mGy/MBq
- Estimated Absorbed Dose, Spleen [1, 3]: 9.11E−03 mGy/MBq
- Estimated Absorbed Dose, Stomach Wall [1, 3]: 9.42E−03 mGy/MBq
- Estimated Absorbed Dose, Testes [1, 3]: 7.70E−03 mGy/MBq
- Estimated Absorbed Dose, Thymus [1, 3]: 8.97E−03 mGy/MBq
- Estimated Absorbed Dose, Thyroid [1, 3]: 7.90E−03 mGy/MBq
- Estimated Absorbed Dose, Total Body [1, 3]: 8.85E−03 mGy/MBq
- Estimated Absorbed Dose, ULI Wall [1, 3]: 9.96E−03 mGy/MBq
- Estimated Absorbed Dose, Urinary Bladder Wall [1, 3]: 1.16E−02 mGy/MBq
- Effective Dose ([1]; Male, initial mouse study): 1.53E−02 mSv/MBq
- Estimated Absorbed Dose, Adrenals ([1]; Male, initial mouse study): 3.72E−02 mGy/MBq
- Estimated Absorbed Dose, Brain ([1]; Male, initial mouse study): 7.01E−03 mGy/MBq
- Estimated Absorbed Dose, Breasts ([1]; Male, initial mouse study): 9.21E−03 mGy/MBq
- Estimated Absorbed Dose, Gallbladder Wall ([1]; Male, initial mouse study): 2.42E−02 mGy/MBq
- Estimated Absorbed Dose, Heart Wall ([1]; Male, initial mouse study): 3.07E−02 mGy/MBq
- Estimated Absorbed Dose, Kidneys ([1]; Male, initial mouse study): 2.38E−02 mGy/MBq
- Estimated Absorbed Dose, LLI Wall ([1]; Male, initial mouse study): 1.28E−02 mGy/MBq
- Estimated Absorbed Dose, Liver ([1]; Male, initial mouse study): 1.56E−02 mGy/MBq
- Estimated Absorbed Dose, Lungs ([1]; Male, initial mouse study): 3.57E−02 mGy/MBq
- Estimated Absorbed Dose, Muscle ([1]; Male, initial mouse study): 1.02E−02 mGy/MBq
- Estimated Absorbed Dose, Osteogenic Cells ([1]; Male, initial mouse study): 1.54E−02 mGy/MBq
- Estimated Absorbed Dose, Ovaries ([1]; Male, initial mouse study): 1.40E−02 mGy/MBq
- Estimated Absorbed Dose, Pancreas ([1]; Male, initial mouse study): 1.35E−02 mGy/MBq
- Estimated Absorbed Dose, Red Marrow ([1]; Male, initial mouse study): 1.02E−02 mGy/MBq
- Estimated Absorbed Dose, Skin ([1]; Male, initial mouse study): 7.82E−03 mGy/MBq
- Estimated Absorbed Dose, Small Intestine ([1]; Male, initial mouse study): 3.38E−02 mGy/MBq
- Estimated Absorbed Dose, Spleen ([1]; Male, initial mouse study): 1.19E−02 mGy/MBq
- Estimated Absorbed Dose, Stomach Wall ([1]; Male, initial mouse study): 1.23E−02 mGy/MBq
- Estimated Absorbed Dose, Testes ([1]; Male, initial mouse study): 9.46E−03 mGy/MBq
- Estimated Absorbed Dose, Thymus ([1]; Male, initial mouse study): 1.16E−02 mGy/MBq
- Estimated Absorbed Dose, Thyroid ([1]; Male, initial mouse study): 1.02E−02 mGy/MBq
- Estimated Absorbed Dose, Total Body ([1]; Male, initial mouse study): 1.12E−02 mGy/MBq
- Estimated Absorbed Dose, ULI Wall ([1]; Male, initial mouse study): 1.52E−02 mGy/MBq
- Estimated Absorbed Dose, Urinary Bladder Wall ([1]; Male, initial mouse study): 1.37E−02 mGy/MBq
- critical organ ([1]; additional work with further mice): lower intestinal wall
- whole-body effective dose ([1]; female phantom, additional work with further mice (Table 2)): 23.7 μSv/MBq
- whole-body effective dose ([1]; female phantom, initial mouse study (Table 1)): 18.4 μSv/MBq
- critical organ ([1]; initial mouse study): adrenal gland
- whole-body effective dose ([1]; male phantom, additional work with further mice (Table 2)): 20.5 μSv/MBq
- whole-body effective dose ([1]; male phantom, initial mouse study (Table 1)): 15.3 μSv/MBq
- blocking of ^18F-LW223 binding (TSPO; deep brain stroke tissue, blocking with PK11195 30 μM): could not be sufficiently blocked
- target:non-target ratio (TSPO; diseased coronary tissue): 4.5
- % specific binding (% SB) (TSPO; diseased coronary tissue, blocking with LW223 10 μM): 88.1±3.4%
- % specific binding (% SB) (TSPO; diseased coronary tissue, blocking with PK11195 10 μM): 75.3±3.2%
- target:non-target ratio (TSPO; stroke tissue): 7.5
- % specific binding (% SB) (TSPO; stroke tissue, blocking with LW223 10 μM): 42.5±7.0%
